79 molecules from the METLIN SMRT retention time set (Domingo-Almenara et al. 2019) can be followed below.

This data set can be described thus: gradient 5% acetonitrile 3 min, to 50% in 2 min, to 85% in 15 min, held 3 min, 100 µL/min. To be noted: column: Zorbax Extend-C18 2.1 x 50 mm; eluents: water / acetonitrile, 0.1% formic acid. Summed up:
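Retention times come from adduct peaks that were picked computationally and then checked by hand. The standards, pure and pooled in mixtures of ~100 molecules, were run on a Zorbax Extend-C18 column (2.1 × 50 mm, 1.8 μm) at 100 μL/min with water and acetonitrile, each with 0.1% formic acid. Detection was by quadrupole time-of-flight mass spectrometry in positive and negative ionization mode, with a dead volume of 40 μL and a dwell volume of 900 μL.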
Regarding `CC1CCCN(C(=O)c2csc(-c3ccc(N4CCCC4)nc3)n2)C1` (centres undefined), the RP-LC retention time worked out at 660 s.

With `CCOC(=O)CNC(=O)NCCn1c(C(F)(F)F)nc2ccccc21`, the RP-LC retention time was 686 s.

The molecule `O=C1COc2cc(Cl)ccc2N1Cc1nc(-c2ccccc2)no1` yielded an RP-LC retention time of 1060 s.

The molecule `Cc1nn(-c2ccccc2)c(C)c1S(=O)(=O)N1CCC(C(=O)N2CCN(C)CC2)CC1` returned an RP-LC retention time of 631 s.

For the molecule `CCc1ccccc1NC(=O)NCC(c1cccnc1)c1cn(C)c2ccccc12` (centres undefined), the RP-LC retention time was determined as 711 s.

In the case of `Cc1cccc(Nc2ccc(N3CCN(C(=O)c4ccc(Br)o4)CC3)nn2)n1`, the RP-LC retention time was 578 s.

For the molecule `CCCCCn1c(=O)c2ccccc2n(Cc2nc(-c3cc(OC)c(OC)c(OC)c3)no2)c1=O`, the RP-LC retention time is 646 s.

For `CCOc1ccc(NC(=O)Cc2csc3nc(-c4ccc(C)c(C)c4)cn23)cc1`, the RP-LC retention time amounted to 903 s.

Molecule `COc1ccc(OC)c(S(=O)(=O)Cc2nc(-c3ccccc3C)no2)c1` showed an RP-LC retention time of 990 s.

As to `Cc1ccc(C2NC(=O)N(CC(=O)Nc3ccc4c(c3)OCO4)C3=C2C(=O)OC3)cc1` (centres undefined), the RP-LC retention time stood at 746 s.

The molecule `O=C(Cc1ccsc1)Nc1ccc2c(c1)CCC(=O)N2` gave an RP-LC retention time of 662 s.

In turn, `CCOC(=O)C(=CNc1ccccc1Cl)C(=O)OCC` came in with an RP-LC retention time of 1130 s.

In turn, `COc1ccc(CN2CCC[C@H]2c2nc(C3CCOCC3)n[nH]2)c(Cl)c1OC` had an RP-LC retention time of 584 s.

Consider `Cc1nn(-c2cc(N3CCOCC3)ncn2)c(C)c1CCC(=O)NCc1ccco1`, for which the RP-LC retention time was 711 s.

The molecule `Cc1ccc(N2CN(CC(=O)NCCC3=CCCCC3)S(=O)(=O)c3cccnc32)cc1` came in with an RP-LC retention time of 1050 s.

`COc1cccc(NC(=O)N(C)CC2CCOCC2)c1` registered an RP-LC retention time of 685 s.

In turn, `O=C1c2ccc(O)cc2O[C@H](c2cc(O)c(O)c(O)c2)[C@H]1O` came in with an RP-LC retention time of 617 s.

On to `CCN(CC)CCNC(=S)Nc1ccc2nc(N3CCN(CC)CC3)cc(C)c2c1`, for which the RP-LC retention time was found to be 493 s.

Take `CCC(=O)O[C@]1(C(=O)CO)CC[C@H]2[C@@H]3CCC4=CC(=O)CC[C@]4(C)[C@H]3CC[C@@]21C`: the RP-LC retention time was 1060 s.

Regarding `O=C(Nc1cc(F)cc(F)c1)c1csc(-c2ccc(N3CCCC3)nc2)n1`, the RP-LC retention time came to 853 s.

Molecule `CC(C)c1nc(-c2ccc(C(=O)N3CCN(c4nc5cccnc5o4)CC3)cc2)no1` gave an RP-LC retention time of 828 s.

`Cc1cc(C(=O)Nc2nnc(SCC(=O)N3CCCc4ccccc43)s2)c(C)o1` came in with an RP-LC retention time of 894 s.

`Cc1ccccc1Nc1c(-c2cccc(Cl)c2)nc2ccc(Cl)cn12` registered an RP-LC retention time of 1080 s.

`CCOc1ccc(NC(=O)c2cn3c(n2)CCCC3)cc1` registered an RP-LC retention time of 614 s.

The molecule `CCn1c(=O)c(C(=O)NCCN2CCc3ccccc3C2)nc2cccnc21` had an RP-LC retention time of 620 s.

Regarding `CC(C)c1ccc(N2C(=O)CN(S(C)(=O)=O)CC2(C)C(=O)NCc2ccc(Cl)cc2)cc1` (centres undefined), the RP-LC retention time came out at 966 s.

In turn, `O=C1c2ccccc2C(=O)N1CCn1ncccc1=O` showed an RP-LC retention time of 603 s.

`Cc1ccc(NC(=O)N2CCC(n3c(-c4ccco4)nc4cccnc43)C2)cc1` (centres undefined) showed an RP-LC retention time of 776 s.

`O=C(CSc1ccc(N2CCCC2)nn1)Nc1ccc(Cl)cc1` gave an RP-LC retention time of 647 s.

Molecule `O=C(Cn1nc2n(c1=O)CCCCC2)Nc1cccc(Cl)c1` yielded an RP-LC retention time of 730 s.

As to `Cc1ccn2c(NC(=O)CC(C)(C)C)c(-c3ccc(F)cc3)nc2c1`, the RP-LC retention time amounted to 669 s.

The molecule `Cc1noc(C)c1CCC(=O)N1CC(n2cc(COc3ccc(F)cc3)nn2)C1` gave an RP-LC retention time of 736 s.

Regarding `COC(CNC(=O)C1CCN(C(=O)c2ncn3c2COC(c2ccc(F)cc2)C3)CC1)OC` (centres undefined), the RP-LC retention time turned out to be 674 s.

`CCc1ccc(NC(=O)N(C)CC2CCOC2)cc1` (centres undefined) yielded an RP-LC retention time of 739 s.

For the molecule `Fc1ccccc1N1CCN(c2ncnc3sc4c(c23)CCC4)CC1`, the RP-LC retention time was 1150 s.

The molecule `N#Cc1cccc(NC(=O)Cn2cccc(-c3nc(-c4ccc(Cl)cc4)no3)c2=O)c1` had an RP-LC retention time of 926 s.

On to `Cc1nn(C(C)C(=O)NCCN2CCCCCC2)c(=O)c2c(-n3cccc3)n(-c3ccccc3)nc12` (centres undefined), for which the RP-LC retention time was 736 s.

`CC(C)c1noc(-c2ccn3c(CC(=O)NC4CCCCC4)nnc3c2)n1`: the RP-LC retention time worked out at 760 s.

Consider `CCCNC(=O)Cn1ccc2ccc(-c3nnc(C)o3)cc21`, for which the RP-LC retention time was 678 s.

In turn, `COC(=O)c1ccc(Cn2nc(C3CCN(S(C)(=O)=O)CC3)n(C)c2=O)cc1` came in with an RP-LC retention time of 642 s.

`CCC(C(=O)N1CCC(C)CC1)n1cnc2onc(-c3ccc(Cl)cc3)c2c1=O` (centres undefined) registered an RP-LC retention time of 1280 s.

Molecule `COc1cc(Cc2nc(-c3cccc(-c4ccnn4C)c3)no2)cc(OC)c1` gave an RP-LC retention time of 904 s.

As for `Cc1nc(C)c(C(=O)N2CCCC(c3nn(C)c(=O)n3-c3ccccc3)C2)s1` (centres undefined), the RP-LC retention time stood at 641 s.

Molecule `O=C(NCC1CCCO1)c1cnn2c(-c3ccc4c(c3)OCO4)ccnc12` (centres undefined) yielded an RP-LC retention time of 780 s.

For `Clc1ccccc1-c1nnc(SCc2cccnc2)o1`, the RP-LC retention time was determined as 621 s.

For the molecule `O=C(CSc1nnnn1-c1ccccc1)c1ccc2c(c1)OCCO2`, the RP-LC retention time was determined as 868 s.

As for `O=C(CCS(=O)(=O)c1ccccc1)N(Cc1ccccn1)Cc1ccco1`, the RP-LC retention time amounted to 610 s.

`CCCn1c(=O)sc2cc(S(=O)(=O)N3CCC(C(=O)NC4CCCC4)CC3)ccc21` showed an RP-LC retention time of 890 s.

`Cc1cc(NC(=O)Cn2cnc3nc4c(cc3c2=O)CCCC4)ccc1Br` came in with an RP-LC retention time of 851 s.

As to `O=c1ccc(-c2ccccc2)nn1CCc1nc(-c2ccc3c(c2)OCO3)no1`, the RP-LC retention time amounted to 900 s.

With `Cc1cc(C)cc(NC(=O)NCC2CCOCC2)c1`, the RP-LC retention time was 752 s.

Take `COc1cc(CCC(=O)N2C[C@@H](C(N)=O)[C@H](c3n[nH]c(C)n3)C2)on1`: the RP-LC retention time was 566 s.

`O=C(NC1CC1)C1CCN(S(=O)(=O)Cc2ccc(Cl)cc2)CC1` had an RP-LC retention time of 735 s.

The molecule `Cc1ccc2c(c1)N(Cc1cc(F)cc(F)c1)N=C(C(=O)N1CCC(C)CC1)S2(=O)=O` displayed an RP-LC retention time of 1080 s.

On to `Cc1sc2ncnc(N3CCCC(C)C3)c2c1C(=O)Nc1ccc(Cl)cc1` (centres undefined), for which the RP-LC retention time amounted to 1290 s.

Consider `NC(=O)C1CCN(C(=O)CSc2nnnn2-c2ccccc2)CC1`, for which the RP-LC retention time was 621 s.

Consider `Cc1nc2ccc(NC(=O)c3cccnc3)cc2c(=O)n1-c1ccc(F)cc1`, for which the RP-LC retention time was determined as 623 s.

`O=C(CCc1conc1-c1ccccc1)N1CCC(N2CCCCC2)CC1` came in with an RP-LC retention time of 616 s.

`COc1ccc(-c2nnc(CC(=O)N3CCOCC3)o2)cc1` returned an RP-LC retention time of 647 s.

Take `O=C(NC1CCCC1)C1CCN(C(=O)c2ncn3c2COC(c2ccc(Cl)cc2)C3)CC1` (centres undefined): the RP-LC retention time was determined as 780 s.

`Cc1ccc(-c2cc3c(=O)n(Cc4noc(CN5CCOCC5)n4)ccn3n2)cc1C` came in with an RP-LC retention time of 777 s.

In turn, `COc1cc(NC(=O)N2CCN(c3ccc(=O)n(-c4ccc(C)c(C)c4)n3)CC2)cc(OC)c1OC` had an RP-LC retention time of 775 s.

In turn, `CC1(C(=O)NCc2ccc(F)cc2)CCCN(C(=O)NCc2ccco2)C1` (centres undefined) yielded an RP-LC retention time of 765 s.

`Cc1cc(C)cc(NC(=O)CN2CCN(Cc3ccc(F)cc3)C(=O)C2=O)c1` showed an RP-LC retention time of 798 s.

`COc1ccc(CN2C(=O)c3ccccc3C2C(=O)NCC2CCCO2)c(OC)c1` (centres undefined): the RP-LC retention time came to 695 s.

In turn, `Cc1cc(C)cc(S(=O)(=O)N2CCC3(CC2)NCCN=C3NCc2ccc(F)cc2)c1` yielded an RP-LC retention time of 753 s.

`CCNC(=O)C1CCN(c2nc3ncn(CC(=O)Nc4ccc(C)cc4C)c(=O)c3s2)CC1` showed an RP-LC retention time of 675 s.

With `COCCn1c(C2CCN(S(=O)(=O)c3ccc(C(C)C)cc3)C2)nc2cccnc21` (centres undefined), the RP-LC retention time is 927 s.

In turn, `O=C(CC1CCOC2(CCN(Cc3ccco3)CC2)C1)NC1CC1` (centres undefined) came in with an RP-LC retention time of 573 s.

`Cc1ccc(-n2nc3c(=O)n(CCCC(=O)NC4CC4)nc(C)c3c2C)cc1` gave an RP-LC retention time of 717 s.

The molecule `O=C(NCc1ccccn1)C1CCN(C(=O)c2ncn3c2COC(c2ccccc2)C3)CC1` (centres undefined) yielded an RP-LC retention time of 602 s.

Take `COc1cc(=O)c(C(=O)Nc2ccc(S(N)(=O)=O)cc2)nn1-c1ccc(F)cc1`: the RP-LC retention time worked out at 678 s.

For the molecule `CC(C)NC(=O)c1ccc2c(c1)nc(CN(C)C(=O)Nc1ccc3c(c1)OCO3)n2C`, the RP-LC retention time was found to be 606 s.

Take `O=C(NCc1cccc(F)c1)N1C[C@@H]2C[C@H](NS(=O)(=O)c3ccccc3)[C@H]1C2`: the RP-LC retention time turned out to be 782 s.

For `Cn1nccc1C(=O)N1CCC(c2nc(-c3ccccc3)no2)C1` (centres undefined), the RP-LC retention time amounted to 779 s.

In turn, `COCc1cc(=O)n(CC(=O)Nc2ccc(F)cc2)c(N2CCOCC2)n1` showed an RP-LC retention time of 797 s.

In turn, `CC1(C)C(=O)N(CC(=O)Nc2ccc(F)c(Cl)c2)c2ccccc21` displayed an RP-LC retention time of 966 s.

For `COc1cccc(-c2csc(-c3nnn(-c4ccc(C)cc4)c3N)n2)c1`, the RP-LC retention time was 1140 s.

`COc1ccc2[nH]c(C(=O)Nc3ccccc3)cc2c1` showed an RP-LC retention time of 880 s.
